These results are taken from patent US9844550B2, “Phtalazinone derivatives and manufacturing process thereof” (ILDONG PHARM CO., LTD., priority 2013, dated 2017).

Assay [1] deals with MDA-MB-436 breast cancer cell line. The experiment in a line: Cell viability assay (MDA-MB-436). The assay is classed as cell-based. The following applies: Homo sapiens, 144 h; MDA-MB-436 cells, treated 6 days. The method, then:
2. Cell Viability Assay (MDA-MB-436)
Cell viability assay was performed by using MDA-MB-436 cell line to measure cytotoxicity of compounds in the present invention. MDA-MB-436 breast cancer cell line was seeded into 96-well plates at 37° C. under 5% CO2 atmosphere using DMEM/F12 (Gibco) containing 10% FBS (Hyclone). After 24 hr incubation, cells were treated with the invented compounds at various concentrations for 6 days. The medium was changed every 3 day. 6 days later, A fluorescence reagent was used to determine the IC50 values.

Assay [2] concerns Capan-1 pancreatic cancer cell line. The experiment in a line: Cell viability assay (Capan-1). The assay is classed as cell-based. Particulars: Homo sapiens, 240 h; Capan-1 cells, treated 10 days. The method, then: 3. Cell Viability Assay (Capan-1)
Cell viability assay was performed by using Capan-1 cell line to measure cytotoxicity of compounds in the present invention. Capan-1 pancreatic cancer cell line was seeded into 96-well plates at 37° C. under 5% CO2 atmosphere using IMDM (Sigma) containing 10% FBS (Hyclone). After 24 hr incubation, cells were treated with the invented compounds at various concentrations for 10 days. After 7-day incubation, the medium was changed. 10 days later, A fluorescence reagent was used to determine the IC50 values.

Usually IC50 stands for the concentration at which inhibition is half-maximal. Higher therefore signals weaker potency in that assay.

A value given as a limit tells only on which side of the number the result lay.

Take `O=C(c1cc(Cc2n[nH]c(=O)c3ccccc23)ccc1F)N1CC(NC2CCCCC2)C1` [Compound I-28, 4-(3-(3-(cyclohexylamino)azetidine-1-carbonyl)-4-fluorobenzyl)phthalazin-1(2H)-one]: the IC50 was 5 to 50 nM in assay [1] and 300 to 1000 nM in assay [2].
As to `O=C(c1cc(Cc2n[nH]c(=O)c3ccccc23)ccc1F)N1CC[C@@H](NC2CCCC2)C1` [Compound I-31, (R)-4-(3-(3-(cyclopentylamino)pyrrolidine-1-carbonyl)-4-fluorobenzyl)phthalazin-1(2H)-one], the IC50 in assay [1] lay in the range of 5 to 50 nM; in assay [2], 50 to 300 nM.
Take `CC(CO)NC1CN(C(=O)c2cc(Cc3n[nH]c(=O)c4ccccc34)ccc2F)C1` (stereo not drawn) [Compound I-36, 4-(4-fluoro-3-(3-((1-hydroxypropan-2-yl)amino)azetidine-1-carbonyl)benzyl)phthalazin-1(2H)-one]: the IC50 in assay [1] lay within 5 to 50 nM; in assay [2], 300 to 1000 nM.
For the compound `CCC(CC)NC1CN(C(=O)c2cc(Cc3n[nH]c(=O)c4ccccc34)ccc2F)C1` [Compound I-40, 4-(4-fluoro-3-(3-(pentan-3-ylamino)azetidine-1-carbonyl)benzyl)phthalazin-1(2H)-one], the results for the IC50 in assay [1] and in assay [2] were 5 to 50 nM and 300 to 1000 nM, respectively.
Turning to `CC(C)C(C)NC1CN(C(=O)c2cc(Cc3n[nH]c(=O)c4ccccc34)ccc2F)C1` (stereo not drawn) [Compound I-41, 4-(4-fluoro-3-(3-((3-methylbutan-2-yl)amino)azetidine-1-carbonyl)benzyl)phthalazin-1(2H)-one], the half-maximal inhibitory concentration (IC50) was at most 5 nM in assay [1] and 300 to 1000 nM in assay [2].
For `CC(NC1CN(C(=O)c2cc(Cc3n[nH]c(=O)c4ccccc34)ccc2F)C1)C1CC1` (stereo not drawn) [Compound I-42, 4-(3-(3-((1-cyclopropylethyl)amino)azetidine-1-carbonyl)-4-fluorobenzyl)phthalazin-1(2H)-one], the IC50 in assay [1] is at most 5 nM; in assay [2], 300 to 1000 nM.
For `O=C(c1cc(Cc2n[nH]c(=O)c3ccccc23)ccc1F)N1CC(NC2CC3CCC2C3)C1` (stereo not drawn) [Compound I-43, 4-(3-(3-(bicyclo[2.2.1]heptan-2-ylamino)azetidine-1-carbonyl)-4-fluorobenzyl)phthalazin-1(2H)-one], the results for the IC50 in assay [1] and in assay [2] were 5 to 50 nM and 300 to 1000 nM, respectively.
Take `CCC(C)NC1CN(C(=O)c2cc(Cc3n[nH]c(=O)c4ccccc34)ccc2F)C1` (stereo not drawn) [Compound I-44, 4-(3-(3-(sec-butylamino)azetidine-1-carbonyl)-4-fluorobenzyl)phthalazin-1(2H)-one]: the IC50 in assay [1] was at most 5 nM; in assay [2] it was 300 to 1000 nM.
The corresponding values for `COC[C@H](C)NC1CN(C(=O)c2cc(Cc3n[nH]c(=O)c4ccccc34)ccc2F)C1` [Compound I-82, (S)-4-(4-fluoro-3-(3-((1-methoxypropan-2-yl)amino)azetidine-1-carbonyl)benzyl)phthalazin-1(2H)-one] are 5 to 50 nM and 300 to 1000 nM.
Regarding `CC(C#N)NC1CN(C(=O)c2cc(Cc3n[nH]c(=O)c4ccccc34)ccc2F)C1` (stereo not drawn) [Compound I-100, 2-((1-(2-fluoro-5-((4-oxo-3,4-dihydrophthalazin-1-yl)methyl)benzoyl)azetidin-3-yl)amino)propanenitrile], the IC50 in assay [1] and in assay [2] was 300 to 1000 nM throughout.
For the compound `O=C(c1cc(Cc2n[nH]c(=O)c3ccccc23)ccc1F)N1CC[C@@H](Nc2cc(C(F)(F)F)ccn2)C1` [Compound I-132, (R)-4-(4-fluoro-3-(3-((4-(trifluoromethyl)pyridin-2-yl)amino)pyrrolidine-1-carbonyl)benzyl)phthalazin-1(2H)-one], the IC50 in assay [1] is at most 5 nM; in assay [2], 5 to 50 nM.
Compound `O=C(c1cc(Cc2n[nH]c(=O)c3ccccc23)ccc1F)N1CC(NCc2ccccc2)C1` [Compound I-133, 4-(3-(3-(benzylamino)azetidine-1-carbonyl)-4-fluorobenzyl)phthalazin-1(2H)-one] showed an IC50 in assay [1] of 50 to 300 nM.
Still for that read-out and setting: in the case of `O=C(c1cc(Cc2n[nH]c(=O)c3ccccc23)ccc1F)N1CC(NCCC(F)(F)F)C1` [Compound I-134, 4-(4-fluoro-3-(3-((3,3,3-trifluoropropyl)amino)azetidine-1-carbonyl)benzyl)phthalazin-1(2H)-one] it was 50 to 300 nM; in that of `O=C(c1cc(Cc2n[nH]c(=O)c3ccccc23)ccc1F)N1CC[C@@H](N2CCCC2)C1` [Compound I-136, (R)-4-(3-([1,3′-bipyrrolidine]-1′-carbonyl)-4-fluorobenzyl)phthalazin-1(2H)-one], 5 to 50 nM.
As for `O=C(c1cc(Cc2n[nH]c(=O)c3ccccc23)ccc1F)N1CC[C@@H](N2CCCCC2)C1` [Compound I-137, (R)-4-(4-fluoro-3-(3-(piperidin-1-yl)pyrrolidine-1-carbonyl)benzyl)phthalazin-1(2H)-one], the IC50 in assay [1] is 50 to 300 nM.
On to `Cc1ccc(N[C@@H]2CCN(C(=O)c3cc(Cc4n[nH]c(=O)c5ccccc45)ccc3F)C2)cc1` [Compound I-138, (R)-4-(4-fluoro-3-(3-(p-tolylamino)pyrrolidine-1-carbonyl)benzyl)phthalazin-1(2H)-one], for which, in assay [1], the 50% inhibitory concentration (IC50) fell in the range of 300 to 1000 nM.
Turning to `CC(C)NCC1CN(C(=O)c2cc(Cc3n[nH]c(=O)c4ccccc34)ccc2F)C1` [Compound I-144, 4-(4-fluoro-3-(3-((isopropylamino)methyl)azetidine-1-carbonyl)benzyl)phthalazin-1(2H)-one], the IC50 in assay [1] is at most 5 nM.
Still for that read-out and setting: in the case of `O=C(c1cc(Cc2n[nH]c(=O)c3ccccc23)ccc1F)N1CC(CNCC2CC2)C1` [Compound I-145, 4-(3-(3-(((cyclopropylmethyl)amino)methyl)azetidine-1-carbonyl)-4-fluorobenzyl)phthalazin-1(2H)-one] it was 5 to 50 nM.
In assay [1], `N#CC1(CNCC2CN(C(=O)c3cc(Cc4n[nH]c(=O)c5ccccc45)ccc3F)C2)CC1` [Compound I-151, 1-((((1-(2-fluoro-5-((4-oxo-3,4-dihydrophthalazin-1-yl)methyl)benzoyl)azetidin-3-yl)methyl)amino)methyl)cyclopropanecarbonitrile] showed an IC50 of 300 to 1000 nM.
Regarding `C#CCN(CC1CN(C(=O)c2cc(Cc3n[nH]c(=O)c4ccccc34)ccc2F)C1)C1CC1` [Compound I-153, 4-(3-(3-((cyclopropyl(prop-2-yn-1-yl)amino)methyl)azetidine-1-carbonyl)-4-fluorobenzyl)phthalazin-1(2H)-one], in assay [1], the IC50 is 300 to 1000 nM.
On the same count and under the same terms, in the case of `CN(CC1CN(C(=O)c2cc(Cc3n[nH]c(=O)c4ccccc34)ccc2F)C1)C1CC1` [Compound I-154, 4-(3-(3-((cyclopropyl(methyl)amino)methyl)azetidine-1-carbonyl)-4-fluorobenzyl)phthalazin-1(2H)-one] it was 300 to 1000 nM; in that of `CCN(CC1CN(C(=O)c2cc(Cc3n[nH]c(=O)c4ccccc34)ccc2F)C1)C1CC1` [Compound I-155, 4-(3-(3-((cyclopropyl(ethyl)amino)methyl)azetidine-1-carbonyl)-4-fluorobenzyl)phthalazin-1(2H)-one], 50 to 300 nM.
